# Test results published in patent publication US12528816B2, “Substituted imidazo [1,2-b] pyridazines and [1, 2, 4] triazolo [ 4,3-b] pyridazines as camkii inhibitors” (Cardurion Pharmaceuticals, INC., priority 2020, dated 2026).
# Target: T1, human CaMKIIδ (Homo sapiens, UniProt Q13557)
# T1 construct: Full-length, glutathione-S-transferase(GST)-tagged, human CaMKIIδ was purchased from Carna Biosciences; purchased Carna Biosciences (CaMKIIδ); Wako Pure Chemical Industries (calmodulin) 02-111
# Test: Evaluation of in vitro CaMKII inhibitory activity (binding assay, TR-FRET)
# Settings: human CaMKIIδ, TR-FRET binding assay; class symbols A/B/C; read-out: Act (CaMKII inhibitory activity, binding assay)
# In short: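 Inhibitors, in eight concentrations of 4-fold dilution, were incubated 1 h at room temperature with a protein–fluorescent probe premix preformed 30 min on ice, containing calmodulin and terbium anti-GST antibody. Displacement read by TR-FRET in duplicate; IC50 by logistic fitting.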
row,Compound,IC50 [nM]
1,C[C@@H](Cn1cnnn1)Oc1cc(-c2ccn3ncc(-c4ccn(CCN5CCOCC5)n4)c3n2)ccc1F [compound 160],< 10
2,C[C@@H](Cn1cnnn1)Oc1cc(-c2ccn3ncc(-c4ccn(CC#N)n4)c3n2)ccc1F [compound 161],< 10
3,C[C@@H](Cn1cnnn1)Oc1cc(-c2ccn3ncc(-c4ccsc4C#N)c3n2)ccc1F [compound 162],< 10
4,C[C@@H](Cn1cnnn1)Oc1cc(-c2ccn3ncc(-c4cnn(C)c4C#N)c3n2)ccc1F [compound 163],< 10
5,C[C@@H](Cn1cnnn1)Oc1cc(-c2ccn3ncc(-c4cn(C)nc4C#N)c3n2)ccc1F [compound 164],< 10
6,C[C@@H](Cn1cnnn1)Oc1cccc(-c2ccn3ncc(-c4cccc(C(=O)NS(=O)(=O)C5CC5)c4)c3n2)c1 [compound 165],< 10
7,COc1ncccc1-c1cnn2ccc(-c3ccc(F)c(O[C@@H](C)Cn4cnnn4)c3)nc12 [compound 166],< 10
8,C[C@@H](Cn1cnnn1)Oc1cc(-c2ccn3ncc(-c4ccc[nH]c4=O)c3n2)ccc1F [compound 167],< 10
9,CNC(=O)c1ccc(C#N)c(-c2cnc3ccc(-c4ccc(F)c(O[C@@H](C)Cn5cnnn5)c4)nn23)c1 [compound 168],< 10
10,COCOc1cccc(-c2cnc3ccc(-c4ccc(F)c(O[C@@H](C)Cn5cnnn5)c4)nn23)c1C#N [compound 169],< 10
11,C[C@@H](Cn1cnnn1)Oc1cc(-c2ccc3ncc(-c4cccc(O)c4C#N)n3n2)ccc1F [compound 170],< 10
12,C[C@@H](Cn1cnnn1)Oc1cc(-c2ccc3ncc(-c4cccc(OCCCN5CCOCC5)c4C#N)n3n2)ccc1F [compound 171],< 10
13,COCCCOc1cccc(-c2cnc3ccc(-c4ccc(F)c(O[C@@H](C)Cn5cnnn5)c4)nn23)c1C#N [compound 172],< 10
14,COc1ncccc1-n1cnc2ccc(-c3ccc(F)c(O[C@@H](C)Cn4cnnn4)c3)nc21 [compound 174],10 to 100
15,C[C@@H](Cn1cnnn1)Oc1cc(-c2ccc3ncn(-c4ccc[nH]c4=O)c3n2)ccc1F [compound 175],10 to 100
16,C[C@@H](Cn1cnnn1)Oc1cc(-c2ccc3ncn(-c4cccn(C)c4=O)c3n2)ccc1F [compound 176],10 to 100
17,C[C@@H](Cn1cnnn1)Oc1cc(-c2ccc3ncc(-c4cccc(OCC#N)c4C#N)n3n2)ccc1F [compound 177],< 10
18,C[C@@H](Cn1cnnn1)Oc1cc(-c2ccc3ncc(-c4cccc(OC5CCNC5=O)c4C#N)n3n2)ccc1F (stereo partly shown) [compound 178],< 10
19,COC(=O)c1cccc(-n2cnc3ccc(-c4ccc(F)c(O[C@@H](C)Cn5cnnn5)c4)nc32)c1C#N [compound 179],10 to 100
20,COCCNc1cccc(-c2cnn3ccc(-c4ccc(F)c(O[C@@H](C)Cn5cnnn5)c4)nc23)c1C#N [compound 180],< 10
21,C[C@@H](Cn1cnnn1)Oc1cc(-c2ccc3ncc(-c4cccc(N)c4C#N)n3n2)ccc1F [compound 181],< 10
22,COCCC(=O)Nc1cccc(-c2cnc3ccc(-c4ccc(F)c(O[C@@H](C)Cn5cnnn5)c4)nn23)c1C#N [compound 182],< 10

row,Compound,IC50 [nM]
1,C#Cc1ccccc1-c1cnc2ccc(-c3ccc(F)c(O[C@@H](C)Cn4cnnn4)c3)nn12 [compound 183],< 10
2,C[C@@H](Cn1cnnn1)Oc1cc(-c2ccc3ncc(-c4cc(C(N)=O)ccc4C(N)=O)n3n2)ccc1F [compound 184],> 100
3,C[C@@H](Cn1cnnn1)Oc1cc(-c2ccc3ncc(-c4cc(C#N)ccc4C#N)n3n2)ccc1F [compound 185],< 10
4,C[C@@H](Cn1cnnn1)Oc1cc(-c2ccc3ncc(-c4cccc(C#N)c4C#N)n3n2)ccc1F [compound 186],< 10
5,C[C@@H](Cn1cnnn1)Oc1cc(-c2ccc3ncc(-c4cc(Br)cc5c4OCC5)n3n2)ccc1F [compound 187],< 10
6,COC(=O)c1cccc(-n2cnc3ccc(-c4ccc(F)c(O[C@@H](C)Cn5cnnn5)c4)nc32)n1 [compound 188],< 10
7,C[C@@H](Cn1cnnn1)Oc1cc(-c2ccc3ncn(-c4cccc(C(=O)O)c4C#N)c3n2)ccc1F [compound 189],10 to 100
8,C=Cc1ccccc1-c1cnc2ccc(-c3ccc(F)c(O[C@@H](C)Cn4cnnn4)c3)nn12 [compound 190],< 10
9,C[C@@H](Cn1cnnn1)Oc1cc(-c2ccc3ncc(-c4cccc(N=S(C)(C)=O)c4C#N)n3n2)ccc1F [compound 191],< 10
10,COCCN1C(=O)c2cccc(-n3cnc4ccc(-c5ccc(F)c(O[C@@H](C)Cn6cnnn6)c5)nc43)c2C1=O [compound 192],> 100
11,C[C@@H](Cn1cnnn1)Oc1cc(-c2ccc3ncn(-c4cccc5c4C(=O)N(C)C5=O)c3n2)ccc1F [compound 193],> 100
12,C[C@@H](Cn1cnnn1)Oc1cc(-c2ccc3ncc(-c4cccnc4N)n3n2)ccc1F [compound 194],10 to 100
13,"CC(Cn1cnnn1)Oc1cc(-c2ccc3ncc(-c4cccc(OC5CCC(N6CC(C)OC(C)C6)CC5)c4C#N)n3n2)ccc1F [compound 195, 2-[6-(4-fluoro-3-{[(2S)-1-(1H-tetrazol-1-yl)propan-2-yl]oxy}phenyl)imidazo[1,2-b]pyridazin-3-yl]-6-{[(1r,4r)-4-[(2R,6S)-2,6-dimethylmorpholin-4-yl]cyclohexyl]oxy}benzonitrile]",< 10
14,C[C@@H](Cn1cnnn1)Oc1cc(-c2ccc3ncc(-c4cccn(C)c4=O)n3n2)ccc1F [compound 196],< 10
15,COc1cccc(-c2cnc3ccc(-c4ccc(F)c(O[C@@H](C)Cn5cnnn5)c4)nn23)c1C#N [compound 197],< 10
16,C[C@@H](Cn1cnnn1)Oc1cc(-c2ccc3ncc(-c4cccc(OCC5CCNC5=O)c4C#N)n3n2)ccc1F (stereo partly shown) [compound 198],< 10
17,C[C@@H](Cn1cnnn1)Oc1cc(-c2ccc3ncc(-c4cccc(OCC5CNC(=O)C5)c4C#N)n3n2)ccc1F (stereo partly shown) [compound 199],< 10
18,C[C@@H](Cn1cnnn1)Oc1cc(-c2ccc3ncc(-c4cccc(OCC5CCC(=O)N5)c4C#N)n3n2)ccc1F (stereo partly shown) [compound 200],< 10
19,C[C@@H](Cn1cnnn1)Oc1cc(-c2ccc3ncc(-c4cccc(OCC5CCN(C)C5)c4C#N)n3n2)ccc1F (stereo partly shown) [compound 201],< 10
20,C[C@@H](Cn1cnnn1)Oc1cc(-c2ccc3ncc(-c4cccc(OCC(N)=O)c4C#N)n3n2)ccc1F [compound 202],< 10
21,C[C@@H](Cn1cnnn1)Oc1cc(-c2ccc3ncc(-c4cccc(OCC5CCOCC5)c4C#N)n3n2)ccc1F [compound 203],< 10
22,CC(=O)NCCCOc1cccc(-c2cnc3ccc(-c4ccc(F)c(O[C@@H](C)Cn5cnnn5)c4)nn23)c1C#N [compound 204],< 10

row,Compound,IC50 [nM]
1,CC(=O)N(C)CCOc1cccc(-c2cnc3ccc(-c4ccc(F)c(O[C@@H](C)Cn5cnnn5)c4)nn23)c1C#N [compound 205],< 10
2,C[C@@H](Cn1cnnn1)Oc1cc(-c2ccc3ncc(-c4cccc(OCC(F)F)c4C#N)n3n2)ccc1F [compound 206],< 10
3,C[C@@H](Cn1cnnn1)Oc1cc(-c2ccc3ncc(-c4cccc(OCCN5CCCC5=O)c4C#N)n3n2)ccc1F [compound 207],< 10
4,C[C@@H](Cn1cnnn1)Oc1cc(-c2ccc3ncc(-c4cccc(OCCC5CCNCC5)c4C#N)n3n2)ccc1F [compound 208],< 10
5,C[C@@H](Cn1cnnn1)Oc1cc(-c2ccc3ncc(-c4cccc(OCCOCCN(C)C)c4C#N)n3n2)ccc1F [compound 209],< 10
6,C[C@@H](Cn1cnnn1)Oc1cc(-c2ccc3ncc(-c4cccc(OCC5CCC5)c4C#N)n3n2)ccc1F [compound 210],< 10
7,C[C@@H](Cn1cnnn1)Oc1cc(-c2ccc3ncc(-c4cccc(OCCN5C(=O)CCC5=O)c4C#N)n3n2)ccc1F [compound 211],< 10
8,COCCOCCOCCOc1cccc(-c2cnc3ccc(-c4ccc(F)c(O[C@@H](C)Cn5cnnn5)c4)nn23)c1C#N [compound 212],< 10
9,CC(C)Oc1cccc(-c2cnc3ccc(-c4ccc(F)c(O[C@@H](C)Cn5cnnn5)c4)nn23)c1C#N [compound 213],< 10
10,C[C@@H](Cn1cnnn1)Oc1cc(-c2ccc3ncc(-c4cccc(OCC(F)(F)F)c4C#N)n3n2)ccc1F [compound 214],< 10
11,C[C@@H](Cn1cnnn1)Oc1cc(-c2ccc3ncc(-c4cccc(OCCN5CCC5)c4C#N)n3n2)ccc1F [compound 215],< 10
12,C[C@@H](Cn1cnnn1)Oc1cc(-c2ccc3ncc(-c4cccc(OCC(=O)O)c4C#N)n3n2)ccc1F [compound 216],< 10
13,C[C@@H](Cn1cnnn1)Oc1cc(-c2ccc3ncc(-c4cccc(OCCCC(=O)O)c4C#N)n3n2)ccc1F [compound 217],< 10
14,C[C@@H](Cn1cnnn1)Oc1cc(-c2ccc3ncc(-c4cccc[n+]4[O-])n3n2)ccc1F [compound 218],10 to 100
15,COc1ncc(C#N)cc1-c1cnc2ccc(-c3ccc(F)c(O[C@@H](C)Cn4cnnn4)c3)nn12 [compound 219],< 10
16,C[C@@H](Cn1cnnn1)Oc1cc(-c2ccc3ncc(-c4cc(C#N)c[nH]c4=O)n3n2)ccc1F [compound 220],< 10
17,C[C@@H](Cn1cnnn1)Oc1cc(-c2ccc3ncc(-c4cc(C#N)cn(C)c4=O)n3n2)ccc1F [compound 221],< 10
18,C[C@@H](Cn1cnnn1)Oc1cc(-c2ccc3ncc(-c4cn(CCCO)nc4C#N)n3n2)ccc1F [compound 222],10 to 100
19,"COCCCn1ncc(-c2cnc3ccc(-c4ccc(F)c(O[C@@H](C)Cn5cnnn5)c4)nn23)c1C#N [compound 223, 4-[6-(4-fluoro-3-{[(2S)-1-(1H-tetrazol-1-yl)propan-2-yl]oxy}phenyl)imidazo[1,2-b]pyridazin-3-yl]-1-(3-methoxypropyl)-1H-pyrazole-5-carbonitrile]",< 10
20,COCCCOC(=O)c1c(-c2cnc3ccc(-c4ccc(F)c(O[C@@H](C)Cn5cnnn5)c4)nn23)cnn1CCCOC [compound 224],> 100
